Measurements published in paper PMC4199771, “Novel Cyclic di-GMP Effectors of the YajQ Protein Family Control Bacterial Virulence” (PLoS Pathogens, 2014).

Columns and labels:
XC_3703 [1] = target: T1, XC_3703 (Xanthomonas campestris, UniProt Q4UQD0); test: isothermal titration calorimetry; type: binding
T1 construct: full-length, synthesized gene in pET47b, E. coli BL21(DE3), N-terminal His6 tag cut by 3C protease

Clocel_3875 = target: T2, Clocel_3875 (Clostridium cellulovorans, UniProt D9SKW9); test: biochemical; design: isothermal titration calorimetry of nucleotide binding to purified recombinant YajQ family protein
T2 construct: recombinant, N-terminal His6 tag cleaved with 3C protease
T2 sequence (D9SKW9 entry or part of it): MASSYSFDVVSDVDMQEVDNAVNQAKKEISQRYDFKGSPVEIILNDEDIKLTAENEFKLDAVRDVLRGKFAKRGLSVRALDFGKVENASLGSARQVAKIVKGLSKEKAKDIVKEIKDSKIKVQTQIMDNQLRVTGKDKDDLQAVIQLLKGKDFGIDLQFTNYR
Procedure: (§1) The ability of XC_3703 to bind different nucleotides including cyclic di-GMP was further examined using isothermal titration calorimetry (ITC) with the purified protein (see Materials and Methods ). The full-length XC_3703 protein bound cyclic di-GMP with high affinity with a K d of 2 µM (Figure 1B; Table S2). It appeared that binding was endothermic in nature, which is a characteristic of a binding mechanism that favours hydrogen bonding and hydrophobic interactions, [16]. […] The observed binding affinity is within the range of physiological cyclic di-GMP levels observed in Xcc and is similar to the binding affinity of a number of established cyclic di-GMP effector proteins. […] To examine whether cyclic di-GMP binding was a common feature of this family, recombinant YajQ-like proteins from various bacteria including Escherichia coli, Pseudomonas aeruginosa, Stenotrophomonas maltophilia, Bacillus cereus and Clostridium species were purified and their ability to bind different nucleotides was assessed. […] The DNA fragments encoding the proteins of interest were synthesized by Gene Oracle in pGOv4 and sub-cloned into pET47b or pLAFR3 before transformation into E. coli BL21 (DE3). Genomic regions are described in Table S7. BL21 (DE3) cells were grown in LB media and induced with 0.25 mM IPTG; protein overexpression was carried out at 37°C for 1 h. Purification was achieved by Ni^2+ affinity chromatography using the N-terminal His6 tag followed by tag cleavage using recombinant 3C protease.

YajQ = target: T3, YajQ (Escherichia coli, UniProt P0A8E7); test: biochemical; design: isothermal titration calorimetry of nucleotide binding to purified recombinant YajQ family protein
T3 construct: recombinant, N-terminal His6 tag cleaved with 3C protease
T3 sequence (P0A8E7 whole entry): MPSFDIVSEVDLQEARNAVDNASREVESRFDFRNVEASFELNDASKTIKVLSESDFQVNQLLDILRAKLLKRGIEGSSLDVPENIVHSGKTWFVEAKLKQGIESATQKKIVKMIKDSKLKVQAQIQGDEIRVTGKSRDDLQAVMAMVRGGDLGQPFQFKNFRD
Procedure: as §1

Smlt4090 = target: T4, Smlt4090 (Stenotrophomonas maltophilia, UniProt B2FHW7); test: isothermal titration calorimetry; type: binding
T4 construct: recombinant, synthesized gene in pET47b, E. coli BL21(DE3), N-terminal His6 tag cut by 3C protease
T4 sequence (B2FHW7 whole entry): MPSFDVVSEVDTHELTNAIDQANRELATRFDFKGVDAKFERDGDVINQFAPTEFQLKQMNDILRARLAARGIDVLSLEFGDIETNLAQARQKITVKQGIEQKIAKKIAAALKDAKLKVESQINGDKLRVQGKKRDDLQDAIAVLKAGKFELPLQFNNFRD
Text: isothermal titration calorimetry on Smlt4090 | YajQ family proteins from P. aeruginosa (PA4395) and S. maltophilia (Smlt4090)

PA4395 = target: T5, PA4395 (Pseudomonas aeruginosa, UniProt Q9HW11); test: isothermal titration calorimetry; type: binding
T5 construct: recombinant, synthesized gene in pET47b, E. coli BL21(DE3), N-terminal His6 tag cut by 3C protease; locus tag is of strain PAO1 (PA14 used in mice)
T5 sequence (Q9HW11 whole entry): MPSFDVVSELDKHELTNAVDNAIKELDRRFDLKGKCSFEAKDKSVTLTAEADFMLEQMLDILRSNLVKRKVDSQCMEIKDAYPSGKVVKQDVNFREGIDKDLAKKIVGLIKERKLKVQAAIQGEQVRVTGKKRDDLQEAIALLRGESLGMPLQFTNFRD
Text: isothermal titration calorimetry on PA4395 | affinity for cyclic di-GMP binding was only seen in YajQ family proteins from P. aeruginosa (PA4395)

XC_3703 [2] = target: T1, XC_3703; test: biochemical; design: isothermal titration calorimetry of nucleotide binding to purified recombinant YajQ family protein
Procedure: as §1

[3] = target: T6, XC_3703 (YajQ family) (Xanthomonas campestris pv. campestris 8004) (UniProt Q4UQD0); test: EMSA
T6 sequence: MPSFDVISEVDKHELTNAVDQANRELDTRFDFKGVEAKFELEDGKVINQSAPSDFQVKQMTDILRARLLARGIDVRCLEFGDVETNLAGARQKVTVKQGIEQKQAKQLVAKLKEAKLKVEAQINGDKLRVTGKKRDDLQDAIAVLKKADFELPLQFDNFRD

Compound | Kd (XC_3703 [1]; read-out: Kd) | Kd (Clocel_3875) | Kd (YajQ) | Kd (XC_3703 [1]) | also measured
Nc1ncnc2c1ncn2[C@@H]1O[C@H](COP(=O)(O)OP(=O)(O)OP(=O)(O)O)[C@@H](O)[C@H]1O [ATP] | 3000 µM | 21.1 µM | 28.2 µM | – | –
Nc1nc2c(ncn2[C@@H]2O[C@H](COP(=O)(O)OP(=O)(O)OP(=O)(O)O)[C@@H](O)[C@H]2O)c(=O)[nH]1 [GTP] | 13000 µM | 31 µM | 34.3 µM | – | –
Nc1ncnc2c1ncn2[C@@H]1O[C@@H]2COP(=O)(O)O[C@H]3[C@@H](O)[C@H](n4cnc5c(N)ncnc54)O[C@@H]3COP(=O)(O)O[C@H]2[C@H]1O [cyclic di-AMP] | – | – | – | 900 µM | –
Nc1nc2c(ncn2[C@@H]2O[C@@H]3CO[P@](=O)(O)O[C@H]4[C@@H](O)[C@H](n5cnc6c(=O)[nH]c(N)nc65)O[C@@H]4CO[P@](=O)(O)O[C@H]3[C@H]2O)c(=O)[nH]1 [cyclic di-GMP] | – | – | – | 2 µM | Kd (Smlt4090): 7.91 µM; Kd (PA4395): 6.98 µM; Kd (XC_3703 [2]): 2.2 µM
GGCATCGAACCGGCCGCACGTTTCGCGGCTGTTGTGCAGTGAATACGTATGCACAGGGTCAATGCTGCGCCGCGATGCGCGCTTAGCATCACCGCGCGCCGCACGCCGTGGGGCGCGCTTTCCGGAACAGGGGCCGGAGGGCATTGCTGCATGCATCGCTGTGCGGGATGCGTGCGTCCACTGATCAGGAGACACACCCG (double strand) [aaeB promoter probe] | – | – | – | – | binding [3]: no binding
